# In patent US9976170B2, “Method for evaluating bacterial cell wall integrity” (UNIVERSIDAD AUTONOMA DE MADRID, priority 2011, dated 2018):
# Key:
# Type in all cases: cell-based
# [1] = system: Enterococcus faecium, ampicillin- and benzylpenicillin-resistant strain; assay: MIC by microdilution and/or E-test
# Text: (§1) The strains and the antibiotics used were: • Gram+ • Enterococcus faecalis.
# (§2) The doses of antibiotic applied were 0, the MIC determined in the Microbiology Laboratory by means of the microdilution and/or E-test technique, and those of the cutoff points of sensitivity and resistance indicated by the Clinical and Laboratory Standards Institute (CLSI) for each strain. A dose 10 times higher than the MIC was also used.
# [2] = system: Enterococcus faecalis, ampicillin-sensitive and benzylpenicillin-resistant strain; assay: MIC by microdilution and/or E-test
# Text: as §1, §2
# [3] = system: Escherichia coli, ampicillin- and ceftazidime-resistant strain; assay: technique for evaluating cell wall integrity (lysis solution, nucleoid release, fluorescence microscopy); conditions: 60 minutes
# Description: (§3) Different bacterial strains grown on a dish with Mueller-Hinton medium for 24 hours were subsequently exposed to a β-lactam antibiotic for 60 minutes in Mueller-Hinton liquid medium at 37° C., under stirring, and were finally processed by means of the technique for evaluating cell wall integrity according to the present invention.
# as §2
# [4] = system: Enterococcus faecium, ampicillin- and benzylpenicillin-resistant strain; assay: as above; conditions: 320 μg/mL, 60 minutes
# Description: as §3, §2
# [5] = system: Escherichia coli, ceftazidime-sensitive strain with intermediate sensitivity to ampicillin; assay: as above; conditions: 60 minutes
# Description: as §3, §2
# [6] = system: Enterococcus faecalis, ampicillin-sensitive and benzylpenicillin-resistant strain; assay: as above; conditions: 60 minutes
# Description: as §3, §2
# [7] = system: ampicillin-sensitive E. coli strain; assay: microgranular-fibrillar background in microgels stained with SYBR Gold (Example 8); conditions: 32 μg/mL, 60 minutes
# Description: The experiment was conducted with a strain of ampicillin-sensitive E. coli and a strain of imipenem-sensitive A. baumanii. The first strain was incubated with 32 μg/mL ampicillin and the second strain with 0.76 μg/mL imipenem for 60 minutes in Mueller-Hinton liquid medium at 37° C. under stirring. After incubation, each culture with the cells was included in microgels on the slide. A microgel containing the antibiotic-free control culture, and 2 microgels containing the culture treated with antibiotic were placed on each slide. The size of each microgel corresponds to a 18×18 mm slide cover. The microgels on some slides were washed in a proteinase K buffer (1% SDS, 2 mM EDTA) and the microgels on other slides were washed in a DNAase I buffer (20 mM Tris-HCl, pH 8.3, 2 mM MgCl2). In the former, one of the microgels containing the culture treated with ampicillin was incubated only with a proteinase K buffer and the other microgel containing the culture treated with ampicillin was incubated with 5 μl of 2 mg/mL proteinase K, in the buffer thereof. In the slides washed with a DNAase I buffer, one of the microgels containing the culture treated with ampicillin was incubated only with a DNAase I buffer and the other microgel containing the culture treated with ampicillin was incubated with 5 μl of 2.5 U DNAase I, in the buffer thereof. […]
# [8] = system: ampicillin-sensitive E. coli strain; assay: incubation with increasing doses of antibiotic, lysed/non-lysed cells normalized by OD 600 (persisters); conditions: 60 minutes; for Lysed Cells Relative / Non-lysed Cells Relative: normalized by OD 600
structure (smiles),measurement,setting,value
CC1(C)S[C@@H]2[C@H](NC(=O)[C@H](N)c3ccccc3)C(=O)N2[C@H]1C(=O)O [ampicillin],MIC,[1],> 32 µg/mL
same,MIC,[2],4 µg/mL
same,background of extracellular DNA fragments,[3]; 256 μg/mL,without background
same,cells lysed with nucleoid with fragmented DNA,[3]; 256 μg/mL,1%
same,lysed cells,[3]; 256 μg/mL,0.5%
same,background of extracellular DNA fragments,"[3]; 2,560 μg/mL",subtle background
same,cells lysed with nucleoid with fragmented DNA,"[3]; 2,560 μg/mL",1.5%
same,empty capsules,"[3]; 2,560 μg/mL",4%
same,heavily lysed cells,"[3]; 2,560 μg/mL",13%
same,moderately lysed cells,"[3]; 2,560 μg/mL",5%
same,background of extracellular DNA fragments,[4],subtle background
same,cells with a small halo,[4],2%
same,heavily lysed cells,[4],7.5%
same,lysed cells with nucleoid with fragmented DNA,[4],1%
same,non-lysed cells,[4],89%
same,background of extracellular DNA fragments,[5]; 8 μg/mL,extensive background
same,cells lysed with nucleoid with fragmented DNA,[5]; 8 μg/mL,9%
same,heavily lysed cells,[5]; 8 μg/mL,55%
same,empty capsules,[5]; 16 μg/mL (MIC),22.6
same,lysed cells with a large halo,[5]; 16 μg/mL (MIC),60.4%
same,lysed cells with nucleoid with fragmented DNA,[5]; 16 μg/mL (MIC),5.7%
same,non-lysed cells,[5]; 16 μg/mL (MIC),11.3%
same,cells with a large halo,[5]; 20 μg/mL,47.3%
same,empty capsules,[5]; 20 μg/mL,31.2%
same,lysed cells with nucleoid with fragmented DNA,[5]; 20 μg/mL,8.6%
same,non-lysed cells,[5]; 20 μg/mL,12.9%
same,empty capsules,[5]; 32 and 160 μg/mL,54%
same,background of extracellular DNA fragments,[6]; 4 μg/mL (MIC),subtle background
same,cells lysed with fragmented DNA,[6]; 4 μg/mL (MIC),12%
same,heavily lysed cells,[6]; 4 μg/mL (MIC),35%
same,moderately lysed cells,[6]; 4 μg/mL (MIC),25%
same,non-lysed cells,[6]; 4 μg/mL (MIC),28%
same,background of extracellular DNA fragments,[6]; 40 μg/mL,very faint
same,cells lysed with fragmented DNA nucleoid,[6]; 40 μg/mL,2%
same,cells with a large lysis halo,[6]; 40 μg/mL,20%
same,cells with a small halo,[6]; 40 μg/mL,15%
same,non-lysed cells,[6]; 40 μg/mL,63%
same,microgranular-fibrillar background in the preparation,[7],showed the background
same,Lysed Cells %,[8]; dose 2 μg/mL,90.3%
same,Non-lysed Cells %,[8]; dose 2 μg/mL,9.7%
same,OD600 (ODinitial = 0.1),[8]; dose 2 μg/mL,0.323
same,RELATIVE OD600 %,[8]; dose 2 μg/mL,77.6%
same,Lysed Cells Relative,[8]; dose 2 μg/mL,70.1
same,Non-lysed Cells Relative,[8]; dose 2 μg/mL,7.5
same,Lysed Cells %,[8]; dose 8 μg/mL,70.6%
same,Non-lysed Cells %,[8]; dose 8 μg/mL,29.3%
same,OD600 (ODinitial = 0.1),[8]; dose 8 μg/mL,0.120
same,RELATIVE OD600 %,[8]; dose 8 μg/mL,28.8%
same,Lysed Cells Relative,[8]; dose 8 μg/mL,20.4
same,Non-lysed Cells Relative,[8]; dose 8 μg/mL,8.5
same,Lysed Cells %,[8]; dose 16 μg/mL,37.5%
same,Non-lysed Cells %,[8]; dose 16 μg/mL,62.5%
same,OD600 (ODinitial = 0.1),[8]; dose 16 μg/mL,0.050
same,RELATIVE OD600 %,[8]; dose 16 μg/mL,12.0%
same,Lysed Cells Relative,[8]; dose 16 μg/mL,4.5
same,Non-lysed Cells Relative,[8]; dose 16 μg/mL,7.5
same,Lysed Cells %,[8]; dose 32 μg/mL,22.5%
same,Non-lysed Cells %,[8]; dose 32 μg/mL,77.5%
same,OD600 (ODinitial = 0.1),[8]; dose 32 μg/mL,0.027
same,RELATIVE OD600 %,[8]; dose 32 μg/mL,6.5%
same,Lysed Cells Relative,[8]; dose 32 μg/mL,1.5
same,Non-lysed Cells Relative,[8]; dose 32 μg/mL,5.0
same,Lysed Cells %,[8]; dose 160 μg/mL,15.0%
same,Non-lysed Cells %,[8]; dose 160 μg/mL,85.0%
same,OD600 (ODinitial = 0.1),[8]; dose 160 μg/mL,0.024
same,RELATIVE OD600 %,[8]; dose 160 μg/mL,5.8%
same,Lysed Cells Relative,[8]; dose 160 μg/mL,0.9
same,Non-lysed Cells Relative,[8]; dose 160 μg/mL,4.9
same,relative proportion of non-lysed cells,"[8]; over all increasing doses, according to relative OD 600",5-8.5
